In patent US9108947B2, “Inhibitors of the Renal Outer Medullary Potassium channel” (Merck Sharp & Dohme Corp., priority 2011, dated 2015):
Where two headings read alike, the source gives them in different places.

Key:
hROMK (hKir1.1) = hROMK (hKir1.1) (Homo sapiens (Human), UniProt P48048); assay: Thallium Flux Assay (ROMK channel functional thallium flux, FLIPR-Tetra); format: cell-based; settings: HEK293 cells stably expressing hROMK (hKir1.1); 30 min compound incubation
Description: (§1) Several assays may be used to measure functional inhibition of the ROMK channel by compounds of the instant invention. One assay that can be used is an electrophysiology assay that measures the electrical current that is generated as potassium permeates through the channel. Another ROMK functional assay makes use of the ability of thallium to permeate through open ROMK channels and increase the fluorescence of a dye previously loaded into the cells. Under control conditions, cells loaded with dye and exposed to thallium-containing medium display a time-dependent increase in fluorescence, the rate of which depends on number of functional channels. When cells are incubated in the presence of a channel inhibitor, the increase in fluorescence is attenuated in a concentration-dependent manner, and IC50 values of inhibition by compounds can be accurately determined. This assay has been established with cell lines expressing either human, or rat ROMK channels, and operates in 384-well format.
HEK293 cells stably expressing hROMK (hKir1.1) were grown at 37° C. in a 10% CO2 humidified incubator in complete growth media: Dulbecco's Modified Eagle Medium supplemented with non-essential amino acids, Penicillin/Streptomycin/Glutamine, G418 and FBS. At >80% confluency, the media was aspirated from the flask and the sample was rinsed with 10 ml Calcium/Magnesium-free PBS. […] To dislodge the cell, the side of the flask was gently banged with a hand. The cells were triturated completely and then transferred to 25 ml complete media. The sample was then centrifuged at 1,500 rpm for 6 minutes, followed by resuspension in complete growth media and then cell concentration was determined. […] Under ideal growth conditions and appropriate tissue culture practices, this cell line is stable for 40-45 passages.
• FluxOR™ Reagent (Component A) • FluxOR™ Assay Buffer (Component B)—10× Concentrate • PowerLoad™ Concentrate (Component C)—100× Concentrate • Probenecid (Component D) Lyophilized sample is kept at −20° C. Water soluble, 100× after solubilization in 1 ml water. […] Store at 4° C. • Thallium sulfate (Tl2SO4) Concentrate (Component G)—50 mM in water. […] Can be stored at room temperature • Stimulant Buffer (prepared at 5× final concentration in 1× FluxOR™Chloride-Free Buffer): 7.5 mM Thallium sulfate and 0.75 mM Potassium sulfate (to give a final assay concentration of 3 mM Thallium 0.3 mM Potassium). Store at 4° C. when not in use. If kept sterile, this solution is good for months. Assay Protocol—
The ROMK channel functional thallium flux assay is performed in 384 wells, using the FLIPR-Tetra instrument. HEK-hKir1.1 cells are seeded in Poly-D-Lysine microplates and kept in a 37° C.-10% CO2 incubator overnight. On the day of the experiment, the growth media is replaced with the FluxOR™ reagent loading buffer and incubated, protected from light, at ambient temperature (23-25° C.) for 90 min. The loading buffer is replaced with assay buffer±test compound followed by 30 min incubation at ambient temperature, where the Thallium/Potassium stimulant is added to the microplate.
• 1. Seed HEK-hKir1.1 cells (50 μl at 20,000 cells/well) in 384-well PDL coated Microplates • 2. Allow cells to adhere overnight in humidified 37° C./10% CO2 incubator • 3. Completely remove cell growth media from microplate and replace with 25 μl loading buffer • 4. Incubate Microplate at room temperature, protected form light, for 90 min • 5. Remove loading buffer and replace with 25 μl 1× Assay Buffer±test compound. • 6. Incubate microplate at room temperature, protected form light, for 30 min • 7. […] Excitation=400 nm, Emission=460 & 580 nm. Collect data for 10 min. Data Calculation—
The fluorescence intensity of wells containing 3 μM of a standard control ROMK inhibitor of the present invention is used to define the ROMK-sensitive component of thallium flux. Fluorescence in the presence of test compounds is normalized to control values to provide % fluorescence change.

Kir1.1 (ROMK1) = Kir1.1 (ROMK1) (Homo sapiens (Human), UniProt P48048); assay: Electrophysiology Assay (whole cell voltage clamp, IonWorks Quattro); format: cell-based
Description: as §1
Chinese hamster ovary cells stably expressing Kir1.1 channels were maintained in T-75 flasks in cell culture media in a humidified 10% CO2 incubator at 37° C. Prior to an experiment, Kir1.1 expression was induced by overnight incubation with 1 mM sodium butyrate. […] After centrifugation, the cell pellet was resuspended in approximately 4.0 ml of bath solution and placed in the IonWorks® instrument. The intracellular solution consisted of (in mM): 80 K gluconate, 40 KCl, 20 KF, 3.2 MgCl2, 3 EGTA, 5 Hepes, pH 7.4. Electrical access to the cytoplasm was achieved by perforation in 0.13 mg/ml amphotericin B for 4 minutes.
Voltage protocols and current recordings were performed using the IonWorks® HT software/hardware system. Currents were sampled at 1 kHz. No correction for liquid junction potentials was used. The test pulse, consisting of a 100 ms step to 0 mV from a holding potential of −70 mV, followed by a 100 ms voltage ramp from −70 mV to +70 mV, was applied before and after a 6 minutes compound incubation period. Test compounds were prepared by diluting DMSO stock solutions into the bath solution at 3× the final concentration and placed in the instrument in 96-well polypropylene plates. Current amplitudes were measured using the IonWorks® software.

[1] = Chinese hamster ovary cells stably expressing Kir1.1, block during voltage step to 0 mV, 6 minutes compound incubation, read-out: EP Assay IC50

Sequence of hROMK (hKir1.1) (P48048 whole entry): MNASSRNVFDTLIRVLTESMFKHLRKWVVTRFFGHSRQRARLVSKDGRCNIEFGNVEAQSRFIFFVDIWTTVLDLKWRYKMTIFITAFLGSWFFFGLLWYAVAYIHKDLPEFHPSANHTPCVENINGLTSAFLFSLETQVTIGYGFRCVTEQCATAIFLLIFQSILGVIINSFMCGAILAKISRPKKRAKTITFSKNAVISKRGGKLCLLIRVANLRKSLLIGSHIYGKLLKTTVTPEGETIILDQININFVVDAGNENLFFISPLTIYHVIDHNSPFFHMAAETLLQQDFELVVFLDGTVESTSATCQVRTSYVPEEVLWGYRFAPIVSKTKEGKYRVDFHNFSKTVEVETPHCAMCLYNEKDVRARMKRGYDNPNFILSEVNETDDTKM
Sequence of Kir1.1 (ROMK1) (P48048 whole entry, species assumed): as the sequence (P48048 whole entry) above

| SMILES | IC50 (hROMK (hKir1.1)) [nM] | IC50 (Kir1.1 (ROMK1); [1]) [nM] | IC50 (Kir1.1 (ROMK1)) [nM] |
| --- | --- | --- | --- |
| Cc1c([C@@H](O)CN2CCCC2CNS(=O)(=O)c2ccc(-n3cnnn3)cc2)ccc2c1COC2=O (stereo partly drawn) [Example 19, N-((1-((R)-2-Hydroxy-2-(4-methyl-1-oxo-1,3-dihydroisobenzofuran-5-yl)ethyl)pyrrolidin-2-yl)methyl)-4-(1H-tetrazol-1-yl)benzenesulfonamide] | 206 | 245 |  |
| Cc1c([C@@H](O)CNCC2(C)CCCN(C[C@H](O)c3ccc4c(c3C)COC4=O)C2)ccc2c1COC2=O (stereo partly drawn) [Example 8, 5-{(1R)-1-Hydroxy-2-[3-({[(2R)-2-hydroxy-2-(4-methyl-1-oxo-1,3-dihydro-2-benzofuran-5-yl)ethyl]amino}methyl)-3-methylpiperidin-1-yl]ethyl}-4-methyl-2-benzofuran-1(3H)-one] | 847 |  |  |
| Cc1c([C@@H](O)CN2CCC(C3(Nc4nccn5cnnc45)CCC3)C2)ccc2c1COC2=O (stereo partly drawn) [Example 23, 5-((1R)-2-(3-(1-([1,2,4]Triazolo[4,3-a]pyrazin-8-ylamino)cyclobutyl)pyrrolidin-1-yl)-1-hydroxyethyl)-4-methylisobenzofuran-1(3H)-one] | 401 |  |  |
| Cc1c(C(CO)NCC2CCCCN2C[C@H](O)c2ccc3c(c2C)COC3=O)ccc2c1COC2=O (stereo partly drawn) [Example 6, 5-{(1R)-1-Hydroxy-2-[2-({[2-hydroxy-1-(4-methyl-1-oxo-1,3-dihydro-2-benzofuran-5-yl)ethyl]amino}methyl)piperidin-1-yl]ethyl}-4-methyl-2-benzofuran-1(3H)-one] | 143 | 446 |  |
| Cc1c([C@@H](O)CN2CC[C@@H](NCC(O)c3ccc(C#N)cn3)C2)ccc2c1COC2=O (stereo partly drawn) [Example 10, 6-(1-Hydroxy-2-((R)-1-((R)-2-hydroxy-2-(4-methyl-1-oxo-1,3-dihydroisobenzofuran-5-yl)ethyl)pyrrolidin-3-ylamino)ethyl)nicotinonitrile] | 504 | 2060 |  |
| Cc1c([C@@H](O)CN2CC(CNS(=O)(=O)c3ccc(C#N)cc3)C2)ccc2c1COC2=O [Example 14, (R)-4-Cyano-N-((1-(2-hydroxy-2-(4-methyl-1-oxo-1,3-dihydroisobenzofuran-5-yl)ethyl)azetidin-3-yl)methyl)benzenesulfonamide] | 122 | 150 |  |
| Cc1c([C@@H](O)CN2CC[C@@H](NS(=O)(=O)c3ccc(C#N)cc3)C2)ccc2c1COC2=O [Example 15, 4-Cyano-N—((R)-1-((R)-2-hydroxy-2-(4-methyl-1-oxo-1,3-dihydroisobenzofuran-5-yl)ethyl)pyrrolidin-3-yl)benzenesulfonamide] | 639 | 1390 |  |
| Cc1c([C@@H](O)CN2CCC(C)(CNc3ccc(C#N)cn3)C2)ccc2c1COC2=O (stereo partly drawn) [Example 21, 6-((1-((R)-2-Hydroxy-2-(4-methyl-1-oxo-1,3-dihydroisobenzofuran-5-yl)ethyl)-3-methylpyrrolidin-3-yl)methylamino)nicotinonitrile] | 547 | 103 |  |
| Cc1c([C@@H](O)CN2CCCC2CNCC(O)c2ccc(C#N)cn2)ccc2c1COC2=O (single isomer, unassigned) [Example 9B] | 290 | 254 |  |
| Cc1c([C@@H](O)CNC2CCCN(c3ccc(C#N)cn3)C2)ccc2c1COC2=O (stereo partly drawn) [Example 20, 6-(3-((R)-2-Hydroxy-2-(4-methyl-1-oxo-1,3-dihydroisobenzofuran-5-yl)ethylamino)piperidin-1-yl)nicotinonitrile] | 265 |  | 52 |
| Cc1c([C@@H](O)CN2CCCCC2CNCC(O)c2ccc(C#N)cn2)ccc2c1COC2=O (stereo partly drawn) [Example 13, 6-{1-Hydroxy-2-[({1-[(2R)-2-hydroxy-2-(4-methyl-1-oxo-1,3-dihydro-2-benzofuran-5-yl)ethyl]piperidin-2-yl}methyl)amino]ethyl}pyridine-3-carbonitrile] | 162 | 269 |  |
| Cc1c([C@@H](O)CN2CC[C@H](NCC(O)c3ccc(C#N)cn3)C2)ccc2c1COC2=O (stereo partly drawn) [Example 11, 6-(1-Hydroxy-2-((S)-1-((R)-2-hydroxy-2-(4-methyl-1-oxo-1,3-dihydroisobenzofuran-5-yl)ethyl)pyrrolidin-3-ylamino)ethyl)nicotinonitrile] | 648 |  |  |
| Cc1c([C@@H](O)CNCC2CCCCN2C[C@H](O)c2ccc3c(c2C)COC3=O)ccc2c1COC2=O (stereo partly drawn) [Example 5, 5-{(1R)-1-Hydroxy-2-[2-({[(2R)-2-hydroxy-2-(4-methyl-1-oxo-1,3-dihydro-2-benzofuran-5-yl)ethyl]amino}methyl)piperidin-1-yl]ethyl}-4-methyl-2-benzofuran-1(3H)-one] | 82 |  |  |
| Cc1c(C(CO)NCC2CCCN2C[C@H](O)c2ccc3c(c2C)COC3=O)ccc2c1COC2=O (stereo partly drawn) [Example 4, 5-{(1R)-1-Hydroxy-2-[2-({[2-hydroxy-1-(4-methyl-1-oxo-1,3-dihydro-2-benzofuran-5-yl)ethyl]amino}methyl)pyrrolidin-1-yl]ethyl}-4-methyl-2-benzofuran-1(3H)-one] | 523 | 278 |  |
| Cc1c([C@@H](O)CNCC2(C)CCN(C[C@H](O)c3ccc4c(c3C)COC4=O)C2)ccc2c1COC2=O (stereo partly drawn) [Example 7, 5-{(1R)-1-Hydroxy-2-[3-({[(2R)-2-hydroxy-2-(4-methyl-1-oxo-1,3-dihydro-2-benzofuran-5-yl)ethyl]amino}methyl)-3-methylpyrrolidin-1-yl]ethyl}-4-methyl-2-benzofuran-1(3H)-one] | 277 |  |  |
| Cc1c([C@@H](O)CN2CCC(CNc3ccc(C#N)cn3)(c3ccccc3)C2)ccc2c1COC2=O (stereo partly drawn) [Example 22, 6-((1-((R)-2-Hydroxy-2-(4-methyl-1-oxo-1,3-dihydroisobenzofuran-5-yl)ethyl)-3-phenylpyrrolidin-3-yl)methylamino)nicotinonitrile] | 808 | 340 |  |
| Cc1c([C@@H](O)CN2CCC(CNc3nccn4cnnc34)(c3ccccc3)C2)ccc2c1COC2=O (stereo partly drawn) [Example 24, 5-((1R)-2-(3-(([1,2,4]Triazolo[4,3-a]pyrazin-8-ylamino)methyl)-3-phenylpyrrolidin-1-yl)-1-hydroxyethyl)-4-methylisobenzofuran-1(3H)-one] | 893 |  |  |
| Cc1c([C@@H](O)CNC2C[C@H]3C[C@@H]2N(C[C@H](O)c2ccc4c(c2C)COC4=O)C3)ccc2c1COC2=O (single isomer, unassigned) [Example 17B] | 581 |  |  |
| Cc1c([C@@H](O)CN2CC(CNS(=O)(=O)Cc3ccc(C#N)cc3)C2)ccc2c1COC2=O [Example 16, (R)-1-(4-Cyanophenyl)-N-((1-(2-hydroxy-2-(4-methyl-1-oxo-1,3-dihydroisobenzofuran-5-yl)ethyl)azetidin-3-yl)methyl)methanesulfonamide] | 1040 |  |  |
